Test results from patent US12648933B2, “Pharmaceutical preparation” (KOWA COMPANY, LTD., priority 2018, dated 2026).
“Also recorded” adds a separate entry of the source.

Assay: Examination on Stability (storage at 60° C. and 80% RH for 21 days, state of sample)
Type: physicochemical
Details: glass vessel with lid opened (1-1 to 1-3) or closed glass bottle = tight package (1-4)
From the text: Examination on Stability […] […] Pemafibrate as it was placed in a glass vessel with a lid opened and labeled as Sample 1-1. […] Ethylcellulose ([…] Co., Ltd.) was mixed with pemafibrate in a ratio of 1 part by mass to 1 part by mass of pemafibrate to obtain a mixture. […] Ethylcellulose ([…] Co., Ltd.) was mixed with pemafibrate in a ratio of 1 part by mass to 1 part by mass of pemafibrate to obtain a mixture.

## CC[C@@H](Oc1cccc(CN(CCCOc2ccc(OC)cc2)c2nc3ccccc3o2)c1)C(=O)O [Sample 1-1, (2R)-2-[3-([1,3-Benzoxazol-2-yl[3-(4-methoxyphenoxy)propyl]amino]methyl)phenoxy]butanoic acid]
After 21 days of storage
  State of mixture, 21 days later: maintained the same state; also recorded: White powder
Start of storage
  State of mixture, immediately after the start of storage: White powder
